According to patent publication US20240358845A1 (priority 2021, published 2024):
Like-named read-outs stand apart in the source and are kept apart here.

Assays:
Murine DMD exon 23 = settings: mouse, in vivo
dystrophin = settings: mouse, in vivo
creatine kinase = settings: mouse, in vivo
[1] = test system: exon 5 of non-human primate CD33; test: CD33 exon 5 skipping (RT-PCR) in monkey PBMC after intravenous infusion; assay type: in vivo; settings: NHP; IV infusion 2 mpk (d0) and 5 mpk (d3)
Procedure: NHP Study design. To explore the tolerability of EEV-PMO on non-human primate (NHP), two CPP-PMO constructs as well as PMO itself are dosed in staggered fashion at 2 mpk and 5 mpk through intravenous infusion on d0 and d3, respectively. […] The CPP used was CPP12, which has a cyclic amino acid sequence of FfΦRrRr. PBMCs (peripheral blood mononuclear cells) were isolated at 1 day (d4) and 7 days […] post 5 mpk injection to detect splicing correction. Blood, serum and urine samples were collected at 1 day and or 7 days post each injection for hematology, clinical chemistry, coagulation, urinalysis, cytokine and histamine analysis.
Detection of exon exclusion by RT-PCR. Although human and non-human primates share high sequence homology of CD33 gene, the 5′-UTR and splicing pattern is different. The sequence coding for the IgV domain of CD33 is located in exon 2 for human and located in exon 5 for non-human primate CD33 gene. Therefore, the skipping of exon 2 in human CD33 (D2-CD33), resulting in ΔIgV-CD33 protein, corresponds to the skipping of exon 5 of non-human primate CD33. Monkey PBMC was collected at specified time points mentioned above. Total RNA was extracted, and RT-PCR was conducted using forward primer 5′-[…]-3′ and reverse primer 5′-[…]-3′ resulting in full length CD33 mRNA (FL-CD33) at 700 bp and Exon-5 skipped CD33 mRNA (D5-CD33) at 320 bp.

Human CD33 exon 2 [2] = assay type: cell-based
Human CD33 exon 2 [3] = settings: U-87 MG glioblastoma cells; 48 hours; 10% FBS
Description: Cells. Differentiated THP-1 cells (human monocyte cells) and glioblastoma cells (human neuronal cells) were used in this study.
Targeting CD33 expression represents a treatment strategy for AD and cancer. Skipping of exon 2 of the gene expressing CD33 produces D2-CD33, a CD33 isoform that lacks a binding domain of sialic acid. In the absence of such a ligand binding domain, CD33 cannot inhibit microglial activation and phagocytosis of amyloid beta by microglial cells. Such a result is protective against AD.

CD33 = CD33 production by flow cytometry in THP1 cells; assay type: cell-based, human
Description: Such a result is protective against AD.
Detection of exon 2 skipping by RT-PCR and flow cytometry.

Substance: 5′-GGCCAAACCTCGGCTTACCTGAAAT-3′ (all PMO monomers) [ENTR-0013]
- mRNA correction and dystrophin protein expression in the heart (Murine DMD exon 23): not in 20 mg/kg PMO treated MDX mice
- cells positive for dystrophin in cardiac tissue (dystrophin): ≤ 5%

Substance: 5′-GGCCAAACCTCGGCTTACCTGAAAT-3′-C3NH-PEG4-BCN+Ac-NLS-Lys(CPP12)-PEG12-K(N3) (all PMO monomers) [ENTR-0165]
- exon 23 skipping in Quad (Murine DMD exon 23; iv, 20 mg/kg): 38.5±2.5%
- exon 23 skipping in diaphragm (Murine DMD exon 23; iv, 20 mg/kg): 30.2±2.8%
- exon 23 skipping in heart (Murine DMD exon 23; iv, 20 mg/kg): 30.5±17.0%
- expression of dystrophin protein levels (Western Blot) (dystrophin): significantly corrected the expression of dystrophin protein levels

Substance: 5′-GGCCAAACCTCGGCTTACCTGAAAT-3′-C3NH-PEG4-BCN+Lys(N3)-miniPEG-NLS-ss-bA-bA-CPP12 (all PMO monomers) [ENTR-0164]
- exon 23 skipping in Quad (Murine DMD exon 23; iv, 20 mg/kg): 59.5±2.2%
- exon 23 skipping in diaphragm (Murine DMD exon 23; iv, 20 mg/kg): 61.0±13.7%
- exon 23 skipping in heart (Murine DMD exon 23; iv, 20 mg/kg): 29.1±0.8%
- expression of dystrophin protein levels (Western Blot) (dystrophin): significantly corrected the expression of dystrophin protein levels

Substance: 5′-GGCCAAACCTCGGCTTACCTGAAAT-3′-click-K-PEG12-Lys(CPP12)-NLS-Ac (all PMO monomers) [ENTR-0201]
- amount of splicing correction at 10 mg/kg versus 5 mg/kg (Murine DMD exon 23): higher amount of splicing correction than treatment with 5 mg/kg
- exon skipping activity across muscle groups (Murine DMD exon 23): high exon skipping activity across all the muscle groups
- mRNA correction and dystrophin protein expression in the heart (Murine DMD exon 23): only observed in 10 mpk ENTR-201 treated MDX mice
- performance of CPP12 with Nuclear Localization Sequence versus CPP12 alone (Murine DMD exon 23): outperformed CPP12 alone significantly
- splicing correction of dystrophin in the heart and diaphragm (Murine DMD exon 23): also resulted in splicing correction of dystrophin in the heart and in the diaphragm
- splicing correction of dystrophin mRNA and dystrophin protein levels (Murine DMD exon 23; 10 mg/kg): significant splicing correction of dystrophin mRNA and dystrophin protein levels
- splicing correction of dystrophin in the heart and diaphragm (Murine DMD exon 23; 20 mg/kg): resulted in splicing correction of dystrophin in the heart and in the diaphragm
- duration of enhanced exon skipping efficiency (Murine DMD exon 23; iv, 20 mg/kg): significant enhancements in exon skipping efficiency up to four weeks
- exon 23 skipping in Quad (Murine DMD exon 23; iv, 20 mg/kg): 73.5±8.4%
- exon 23 skipping in diaphragm (Murine DMD exon 23; iv, 20 mg/kg): 79.0±6.8%
- exon 23 skipping in heart (Murine DMD exon 23; iv, 20 mg/kg): 60.5±17.2%
- splicing correction of dystrophin (Murine DMD exon 23; iv, 20 mg/kg): resulted in splicing correction of dystrophin
- splicing correction and dystrophin protein in comparison to 20 mpk PMO (dystrophin): higher amount of both splicing correction and dystrophin protein in all four muscle tissues
- duration of restored dystrophin protein (Western Blot) (dystrophin; iv, 20 mg/kg): sustained up to four weeks
- dystrophin immunohistochemistry, skeletal muscle fibers (dystrophin; iv, 20 mg/kg): all the skeletal muscle fibers immunostained positive for dystrophin protein
- intensity of dystrophin expression in heart muscle tissue (immunohistochemistry) (dystrophin; iv, 20 mg/kg): reaching near normal levels
- creatine kinase expression in comparison to control (creatine kinase): decrease in creatine kinase expression in comparison to control
- serum creatine kinase level (creatine kinase): normalized the serum creatine kinase level

Substance: 5′-GTAACTGTATTTGGTACTTCC-3′ (Ac-NLS-Lys(CPP12)-PEG12-K(N3)- (all PMO monomers) [EEV-PMO-CD33-5]
- skipping of exon 5 of CD33 gene in monkey PBMC [1]: resulted in skipping of exon 5 of CD33 gene
- dose dependence of exon 2 skipping (Human CD33 exon 2 [2]): dose-dependent skipping of exon 2 CD33
- improvement of exon 2 skipping compared to unconjugated PMO-CD33 (Human CD33 exon 2 [2]): over 1000 fold
- improvement of exon 2 skipping over PMO-CD33 with Endoporter transfection (Human CD33 exon 2 [2]): over 2 fold
- skipping of exon 2 CD33 (RT-PCR) (Human CD33 exon 2 [3]): dose-dependent skipping of exon 2 CD33

Substance: 5′-GTAACTGTATTTGGTACTTCC-3′ + CPP12-PEG12-K(CPP12)-PEG12-TFP (all PMO monomers) [EEV-PMO-CD33-4]
- dose dependence of exon 2 skipping (Human CD33 exon 2 [2]): dependent on the dose
- efficacy in inducing human CD33 exon 2 skipping (PMO sequence optimization) (Human CD33 exon 2 [2]): superior efficacy
- potency of bivalent versus monovalent EEV-PMO-CD33 in inducing CD33 exon 2 skipping (Human CD33 exon 2 [2]): more potent than EEV-PMO-CD33-2
- skipping of exon 2 of CD33 (RT-PCR) (Human CD33 exon 2 [2]): resulted in skipping of exon 2 and the production of D2-CD33
- production of CD33 (flow cytometry) in comparison to untreated (NT) cells (CD33): reduced production of CD33
